Results as given in ChEMBL document CHEMBL1201862, “PubChem BioAssay data set” (2004).
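Five concentrations, 48 hours, 96-well plates. At the GI50, growth is halved.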 Calls of active or inactive are those of the source. Rule as the data show it: active = GI50 up to about 1.1 µM and inactive = higher.

Key:
Experiment in all cases: DTP human tumour cell line panel, 48 h
[1] = system: SK-MEL-2
[2] = system: SK-MEL-28
[3] = system: KM12
[4] = system: SK-MEL-5
[5] = system: M14
[6] = system: TK-10
[7] = system: K562
[8] = system: EKVX
[9] = system: A498
[10] = system: HOP-62
[11] = system: SN12C
[12] = system: SK-OV-3
[13] = system: ACHN
[14] = system: OVCAR-3
[15] = system: NCI-H226
[16] = system: HOP-92
[17] = system: SF-539
[18] = system: SNB-75
[19] = system: OVCAR-8

SMILES	GI50 [1]	GI50 [2]	GI50 [3]	GI50 [4]	GI50 [5]	GI50 [6]	GI50 [7]	GI50 [8]	GI50 [9]	GI50 [10]	GI50 [11]	GI50 [12]	GI50 [13]	GI50 [14]	GI50 [15]	GI50 [16]	GI50 [17]	GI50 [18]	GI50 [19]
CO[C@@H]1[C@H](O)CC[C@]2(CO2)[C@H]1[C@@]1(C)O[C@@H]1CC=C(C)C	> 200 µM (inactive)	> 200 µM (inactive)	34.1 µM (inactive)	> 200 µM (inactive)	180 µM (inactive)	> 200 µM (inactive)	> 200 µM (inactive)	165 µM (inactive)	> 200 µM (inactive)	58.2 µM (inactive)	25 µM (inactive)	> 200 µM (inactive)	155 µM (inactive)	189 µM (inactive)	> 200 µM (inactive)	> 200 µM (inactive)	134 µM (inactive)	> 200 µM (inactive)	
O=C(CC(=O)Nc1ccccc1O)Nc1ccccc1O		13.8 µM (inactive)	10.8 µM (inactive)	10 µM (inactive)	16.1 µM (inactive)	53 µM (inactive)	6.79 µM (inactive)	> 100 µM (inactive)	> 100 µM (inactive)	80.9 µM (inactive)	16.3 µM (inactive)	> 100 µM (inactive)	9.86 µM (inactive)	14.9 µM (inactive)	63.1 µM (inactive)	> 100 µM (inactive)	19.1 µM (inactive)	18.6 µM (inactive)	14.2 µM (inactive)
O=[N+]([O-])c1ccccc1C1N2CCCCC2[C@@H]2c3[nH]c4ccccc4c3CCN12 (stereo not given in full)	13.6 µM (inactive)	13.7 µM (inactive)		13.4 µM (inactive)	13.7 µM (inactive)	16.5 µM (inactive)	3.57 µM (inactive)	20.7 µM (inactive)	12.6 µM (inactive)	14.8 µM (inactive)	13.6 µM (inactive)	17.9 µM (inactive)	12.4 µM (inactive)	19.8 µM (inactive)		15.1 µM (inactive)	12.2 µM (inactive)		16.8 µM (inactive)
FC(F)(F)P1C2C=CC(CC2)C1(F)F (stereo not given)	> 100 µM (inactive)	> 100 µM (inactive)	> 100 µM (inactive)	> 100 µM (inactive)	> 100 µM (inactive)	> 100 µM (inactive)	> 100 µM (inactive)	> 100 µM (inactive)	> 100 µM (inactive)	> 100 µM (inactive)	> 100 µM (inactive)	> 100 µM (inactive)	> 100 µM (inactive)		> 100 µM (inactive)		> 100 µM (inactive)	> 100 µM (inactive)	> 100 µM (inactive)
CN(C)/C=N/C1CCC(C(C)(C)C)CC1 (stereo not given)	18.6 µM (inactive)	15.9 µM (inactive)		17.3 µM (inactive)	17.6 µM (inactive)	21.8 µM (inactive)	15 µM (inactive)	22.4 µM (inactive)	24 µM (inactive)	17.2 µM (inactive)	17.7 µM (inactive)	21.3 µM (inactive)	21.2 µM (inactive)	14.5 µM (inactive)	19.3 µM (inactive)	15.5 µM (inactive)	17.5 µM (inactive)	19.5 µM (inactive)	15.6 µM (inactive)
CN(C)/C=N\c1nc(=O)n(C2CCC(CO)O2)cc1F (stereo not given)	> 100 µM (inactive)	> 100 µM (inactive)	> 100 µM (inactive)	> 100 µM (inactive)	> 100 µM (inactive)	> 100 µM (inactive)	> 100 µM (inactive)	> 100 µM (inactive)		> 100 µM (inactive)	> 100 µM (inactive)	> 100 µM (inactive)	> 100 µM (inactive)	> 100 µM (inactive)	> 100 µM (inactive)	> 100 µM (inactive)		> 100 µM (inactive)	> 100 µM (inactive)
O=C1OS2(OC(=O)c3cccc4cccc2c34)c2ccccc21 (stereo not given)	> 100 µM (inactive)	> 100 µM (inactive)	> 100 µM (inactive)	> 100 µM (inactive)	> 100 µM (inactive)	> 100 µM (inactive)	> 100 µM (inactive)	> 100 µM (inactive)	> 100 µM (inactive)	> 100 µM (inactive)	> 100 µM (inactive)		> 100 µM (inactive)	> 100 µM (inactive)	> 100 µM (inactive)	> 100 µM (inactive)	> 100 µM (inactive)		> 100 µM (inactive)
CCOC(=O)CCCNC(=O)CCCCC(=O)N(C)C	> 100 µM (inactive)	> 100 µM (inactive)	> 100 µM (inactive)	> 100 µM (inactive)	> 100 µM (inactive)	> 100 µM (inactive)	> 100 µM (inactive)	> 100 µM (inactive)	> 100 µM (inactive)	> 100 µM (inactive)	> 100 µM (inactive)	> 100 µM (inactive)	> 100 µM (inactive)	> 100 µM (inactive)	> 100 µM (inactive)	> 100 µM (inactive)	> 100 µM (inactive)		> 100 µM (inactive)
[N-]=[N+]=NCN1C(=O)C2C3C=CC(C2C1=O)C1C2C(=O)N(CN=[N+]=[N-])C(=O)C2C31 (stereo not given)	> 100 µM (inactive)	> 100 µM (inactive)	> 100 µM (inactive)	> 100 µM (inactive)	> 100 µM (inactive)	> 100 µM (inactive)	> 100 µM (inactive)	> 100 µM (inactive)		> 100 µM (inactive)	> 100 µM (inactive)		> 100 µM (inactive)	> 100 µM (inactive)		12.5 µM (inactive)	> 100 µM (inactive)		> 100 µM (inactive)
COc1ccc(CN=C(N)N)c2ccccc12	35.1 µM (inactive)	22.3 µM (inactive)	25.5 µM (inactive)	20 µM (inactive)	37.1 µM (inactive)	22.2 µM (inactive)		21.1 µM (inactive)		0.78 µM (active)	14.9 µM (inactive)	34.8 µM (inactive)	35.6 µM (inactive)	42.9 µM (inactive)	27.4 µM (inactive)		19.2 µM (inactive)	20.5 µM (inactive)	38.8 µM (inactive)
Cc1cccc(C)c1NC(=S)NC=C(C(N)=O)C(N)=O	> 100 µM (inactive)	> 100 µM (inactive)	> 100 µM (inactive)	> 100 µM (inactive)	> 100 µM (inactive)	> 100 µM (inactive)	> 100 µM (inactive)	> 100 µM (inactive)	> 100 µM (inactive)	> 100 µM (inactive)	> 100 µM (inactive)	> 100 µM (inactive)	> 100 µM (inactive)	> 100 µM (inactive)	> 100 µM (inactive)	> 100 µM (inactive)	> 100 µM (inactive)	> 100 µM (inactive)	> 100 µM (inactive)
Cc1ccc(S(=O)(=O)NC(=O)NNc2ccc(F)cc2)cc1	> 100 µM (inactive)	> 100 µM (inactive)	> 100 µM (inactive)	> 100 µM (inactive)	> 100 µM (inactive)	> 100 µM (inactive)		> 100 µM (inactive)	> 100 µM (inactive)	> 100 µM (inactive)	> 100 µM (inactive)	> 100 µM (inactive)	> 100 µM (inactive)	> 100 µM (inactive)	> 100 µM (inactive)	> 100 µM (inactive)	> 100 µM (inactive)		
c1ccc(C2N3CCCCC3[C@@H]3c4[nH]c5ccccc5c4CCN23)nc1 (stereo not given in full)	> 100 µM (inactive)	> 100 µM (inactive)		> 100 µM (inactive)	> 100 µM (inactive)	> 100 µM (inactive)	94 µM (inactive)	> 100 µM (inactive)	> 100 µM (inactive)	> 100 µM (inactive)	> 100 µM (inactive)	> 100 µM (inactive)	> 100 µM (inactive)	> 100 µM (inactive)		> 100 µM (inactive)	> 100 µM (inactive)	68.7 µM (inactive)	> 100 µM (inactive)
O=[N+]([O-])c1cccc(C(O)/C(=N/Nc2ccccc2)C2Nc3ccc([N+](=O)[O-])cc3N=C2O)c1 (stereo not given)	> 100 µM (inactive)	> 100 µM (inactive)	27.8 µM (inactive)	16.9 µM (inactive)	42.1 µM (inactive)	> 100 µM (inactive)	30.5 µM (inactive)	> 100 µM (inactive)		> 100 µM (inactive)	> 100 µM (inactive)	> 100 µM (inactive)	24.5 µM (inactive)	66.7 µM (inactive)	> 100 µM (inactive)	> 100 µM (inactive)	13.2 µM (inactive)	74 µM (inactive)	> 100 µM (inactive)
CCOC(=O)[C@@]12C(C)=CC(=O)O[C@]1(C)C1C(=O)NC(=O)C12 (stereo not given in full)	> 100 µM (inactive)	> 100 µM (inactive)	> 100 µM (inactive)	> 100 µM (inactive)	> 100 µM (inactive)	> 100 µM (inactive)	> 100 µM (inactive)	> 100 µM (inactive)	> 100 µM (inactive)	> 100 µM (inactive)		> 100 µM (inactive)	> 100 µM (inactive)	34.4 µM (inactive)	7.16 µM (inactive)	22.1 µM (inactive)	> 100 µM (inactive)	85.1 µM (inactive)	> 100 µM (inactive)
O=[N+]([O-])c1ccc(C2=Nc3ccccc3[S+]([O-])C(c3ccccc3)C2)cc1 (stereo not given)	34.7 µM (inactive)	20 µM (inactive)	15.3 µM (inactive)	> 10 µM (inactive)	20.2 µM (inactive)	27 µM (inactive)	10.9 µM (inactive)	22.4 µM (inactive)		26.7 µM (inactive)	23.6 µM (inactive)	31.9 µM (inactive)	21.4 µM (inactive)	17.5 µM (inactive)	16.1 µM (inactive)		20.2 µM (inactive)	19 µM (inactive)	32.4 µM (inactive)
